# According to patent US5849753A, “Pyridyl imidazole derivatives and processes for the preparation thereof” (Korea Research Institute of Chemical Technology, priority 1994, dated 1998):
# Key:
# [1] = test system: unanesthetized dogs; assay: Blood pressure lowering effect in unanesthetized dogs (furosemide treated); format: in vivo, dog; design: Maximum blood pressure lowering effect in a dog: unit not given here; settings: oral; for Blood pressure variation with time: 3 mg
# Protocol: A number of dogs were fed freely in a feeding room and those weighing 7 to 12 kg in good health were selected regardless of their gender.
# The test dogs were anesthetized with 30 mg/kg of pentobarbital sodium by intravenous injection and the left femoral artery and femoral vein were separated carefully. Silicone catheter, specially prepared and filled with saline treated with heparin(1,000 IU/ml), was cannulated into the blood vessels. After the surgery, the dogs were constrained to measure their blood pressure continuously with Gould 2000 physiograph adapted to a Grass P23 XL pressure transducer; and their heart rates were monitored with ECG/Biotacho amplifier. The dogs were tested at least 2 days after the surgery.
# 10 mg/kg of furosemide was injected intramuscularly 18 hours(in case of intravenous injection, 2 hours) before the beginning of the test (administration of the test compound) to improve the activity of renin in blood plasma. After the injection of furosemide, neither food nor water was provided. The test compound was suspended in Tween 80 and administered in an amount of 20 mg/kg orally. The blood pressure and heart rate were measured up to 8 hours after the administration of each test compound.
# The maximum blood pressure lowering effect of the present compounds and the control compounds were determined in different amounts of administration using the same method as […]
# [2] = test system: renal hypertensive rat; assay: Blood pressure lowering effect in renal hypertension (renal hypertensive rats, intravenous or oral); format: in vivo, male Sprague-Dawley rats; settings: 3 mg, read-out: Maxium Blood Pressure Lowering Effect(%)
# From the text: (§1) To induce renal hypertension, left renal artery of 4 week-old male Sprague-Dawley rats(from The Korea Research Institute of Chemical Technology) was ligated. The rats were anesthetized with ether and the surgical region on the left abdomen of the rat was shaved, disinfected, and then incised about 1 cm vertically. The renal artery near abdominal aorta was isolated carefully from surrounding tissues and veins, and then ligated completely with a suture(4/0 sterile surgical silk). The muscular strata and skin of the surgical area were sutured with a suture(4/0 sterile surgical silk). The surgical region was disinfected to prevent infection and thereafter, 200 to 250 mg/Kg/day of cephazolin sodium was injected intramuscularly for 2 days. 6 to 8 days after the ligation, rats showing systolic pressure of more than 180 mmHg were selected for renal hypertension test. The blood pressure was determined by a tail-cuff method from the tail under unanesthetized condition(Gerold, M. et al., Arzneimittrel-Forsch, 18, 1285(1968)).
# (§2) Each of the compounds to be tested was administered intravenously or orally into the renal hypertensive rat. The blood pressure of the rats was determined by direct method(Chiu, A. T. et al., J. Pharmacol. Exp. Ther. 250, 867(1989)) using a catheter. The rats were anesthetized with ketamine hydrochloride(125 mg/kg, i.p.) and a catheter was filled with saline and inserted into a carotid artery and carotid vein. The surgical area was sutured with a metal clip. The rats were relaxed at least 3 hours and the catheter in the carotid artery was adapted to an isotec pressure transducer to determine their blood pressure and heart rate with a physiograph(Linearcorder WR3310). After the blood pressure was stabilized, the test compound was administered intravenously or orally. For intravenous administration, the administered volume and washing volume were 1.0 ml/Kg and 0.2 ml, respectively. The blood pressure and heart rate were measured in regular intervals up to 24 hours after the administration of the test compound and compared with those measured after the administration of the control compound Losartan.
# (§3) The test compound was dissolved in 0.05N KOH for intravenous administration and suspended in Tween 80 for oral administration.
# [3] = test system: angiotensin II receptor; assay: Angiotensin II Receptor Binding Assay ([3H] angiotensin II binding inhibition); settings: [3H] angiotensin II ligand; 60 minutes, 25° C.; test concentration not given
# Protocol: In accordance with the procedure disclosed in Chiu, A. T. et al., Eur. J. Pharm., 157, 13(1981), a ligand marked with a radioisotope was reacted with an angiotensin II receptor and the reactant was filtered with a glass fiber to remove unreacted ligand. After washing the filter, the amount of the remaining isotope was measured to determine the binding activity of the ligand, as described below in detail.
# Sprague-Dawley rats and Wistar rats of 250 to 350 g(from The Korea Research Institute of Chemical Technology) were tested and the test procedures were carried out at 4° C., unless otherwise specified. Adrenal gland was separated from the Sprague-Dawley rats(liver, in the case of Wistar rats) into cortex and medulla. The separated adrenal cortex and medulla were washed with a sucrose buffer solution (0.2M sucrose, 1 mM EDTA, 10 mM Tris, pH 7.2) and homogenized in the same buffer solution by using a Teflon pestle and a Brinkmann homogenizer. The homogenates were centrifuged at 3,000 Xg for 10 minutes to remove precipitates and further centrifuged at 12,000 Xg for 13 minutes. The final supernatants were centrifuged at 102,000 Xg for 1 hour to obtain precipitates, which were washed with a Tris buffer solution(50 mM Tris, 5 mM MgCl2, pH 7.2) and re-centrifuged at 102,000 Xg for 1 hour. The resulting precipitates were immediately processed at the following step or stored at -70° C.
# The precipitates were suspended in a Tris buffer solution. The amount of protein was determined by using a Bio-Rad DC protein analyzing kit and the protein concentration was adjusted to the amounts of: 0.2 to 0.3 mg/ml(Sprague-Dawley rat: adrenal cortex), 1.5 to 2.0 mg/ml(Sprague-Dawleyrat: adrenal medulla), and 1.5 to 2.0 mg/ml(Wistar rat: liver). To the suspension, bovine serum albumin(BSA) was added to a concentration of 0.25 wt % and the resultant was immediately processed at the following step or stored at -70° C.
# (ii) Measurement of angiotensin II receptor binding capacity 50 μl(based on ligand) of [^3 H] angiotensin II(NEN, NET-446) and 10 μl of each of the test compounds with various concentrations were added to the buffer solution(50 mM Irris(pH 7.2), 5 mM MgCl2, 0.25% BSA) to adjust the final volume to be 0.5 ml. 100 μl of the receptor suspension was added thereto and the resulting solution was reacted for 60 minutes while stirring in a water bath at 25° C. 3 ml of cold buffer solution for analysis was added to cease the reaction. The isotope which was bound to the receptor was isolated from the resultant by using Brandel Cell Harvester System with Whatman glass fiber GF/C. After washing the filter, the radioactivity of the filter was determined by using a liquid scintillation counter. Binding inhibition(%) of the test compound was calculated as follows:
# Binding Inhibition(%)=[{(T--B)-(S--B)}/(T--B)]×100
# wherein T is cpm of the reaction product untreated with the test compound, S is cpm of the reaction product treated with the test compound, and B is cpm of blank test.
# [4] = test system: renal hypertensive rat; assay: Blood pressure lowering effect on oral administration to rats at several doses; format: in vivo, male Sprague-Dawley rats
# From the text: as §1, §2, §3
# (iii) Blood pressure lowering effect The present compounds, Losartan(Dup 753) and the Merck compound were administrated orally to rats in 10, 3, 1, 0.3 and 0.1 mg/kg under the same condition as in (ii) and the blood pressure lowering effect was determined.
compound,measurement,setting,value
"CCCCc1nc2cc(-c3ccccc3)c(C(OC)OC)nc2n1Cc1ccc(-c2ccccc2-c2nnn[nH]2)cc1 [Example 1, 2-butyl-5-dimethoxymethyl-6-phenyl-3-[2'-(1H-tetrazol-5-yl)biphenyl-4-ylmethyl]-3H-imidazo[4,5-b]pyridine]",Maximum blood pressure lowering effect in a dog,[1]; 1 mg/kg,15
same,Maximum blood pressure lowering effect in a dog,[1]; 3 mg/kg,35
same,Maximum blood pressure lowering effect in a dog,[1]; 10 mg/kg,41
same,Blood pressure variation with time,"[1]; dogs, 0.5 hr",-31.3%
same,Blood pressure variation with time,"[1]; dogs, 1 hr",-32.6%
same,Blood pressure variation with time,"[1]; dogs, 2 hr",-34.0%
same,Blood pressure variation with time,"[1]; dogs, 4 hr",-33.0%
same,Blood pressure variation with time,"[1]; dogs, 6 hr",-30.1%
same,Blood pressure variation with time,"[1]; dogs, 8 hr",-25.9%
same,change in vivo at 3 mg,[2],-40%
same,Binding Inhibition(%),[3],77.8%
same,blood pressure lowering effect,[4]; 1 mg/kg,25%
same,blood pressure lowering effect,[4]; 3 mg/kg,38%
"CCCCc1nc2cc(-c3ccccc3OC)c(C(OC)OC)nc2n1Cc1ccc(-c2ccccc2-c2nn[nH]n2)cc1 [Example 20, 2-butyl-5-dimethoxymethyl-6-(2-methoxyphenyl-1-yl)-3-[2'-(1H-tetrazol-5-yl)-biphenyl-4-ylmethyl]-3H-imidazo[4,5-b]pyridine]",change in vivo at 3 mg,[2],-25%
same,Binding Inhibition(%),[3],81.9%
"CCCCc1nc2cc(-c3cccc[n+]3[O-])c(C(OC)OC)nc2n1Cc1ccc(-c2ccccc2-c2nn[nH]n2)cc1 [Example 21, 2-butyl-5-dimethoxymethyl-6-(1-oxy-pyridin-2-yl)-3-[2'-(1H-tetrazol-5-yl)-biphenyl-4-ylmethyl]-3H-imidazo[4,5-b]pyridine]",change in vivo at 3 mg,[2],-20%
same,Binding Inhibition(%),[3],92.2%
"CCCCc1nc2cc(-c3cccnc3)c(C(OC)OC)nc2n1Cc1ccc(-c2ccccc2-c2nnn[nH]2)cc1 [Example 22, 2-butyl-5-dimethoxymethyl-6-(pyridin-3-yl)-3-[2'-(1H-tetrazol-5-yl)-biphenyl-4-ylmethyl]-3H-imidazo[4,5-b]pyridine]",change in vivo at 3 mg,[2],-38%
same,Binding Inhibition(%),[3],94.8%
"CCCCc1nc2cc(-c3ccncc3)c(C(OC)OC)nc2n1Cc1ccc(-c2ccccc2-c2nnn[nH]2)cc1 [Example 23, 2-butyl-5-dimethoxymethyl-6-(pyridin-4-yl)-3-[2'-(1H-tetrazol-5-yl)-biphenyl-4-ylmethyl]-3H-imidazo[4,5-b]pyridine]",change in vivo at 3 mg,[2],-33%
same,Binding Inhibition(%),[3],92.9%
"CCCCc1nc2cc(-c3ccc[n+]([O-])c3)c(C(OC)OC)nc2n1Cc1ccc(-c2ccccc2-c2nn[nH]n2)cc1 [Example 24, 2-butyl-5-dimethoxymethyl-6-(1-oxy-pyridin-3-yl)-3-[2'-(1H-tetrazol-5-yl)-biphenyl-4-ylmethyl]-3H-imidazo[4,5-b]pyridine]",change in vivo at 3 mg,[2],-18%
same,Binding Inhibition(%),[3],94.9%
"CCCCc1nc2cc(-c3cc[n+]([O-])cc3)c(C(OC)OC)nc2n1Cc1ccc(-c2ccccc2-c2nn[nH]n2)cc1 [Example 25, 2-butyl-5-dimethoxymethyl-6-(1-oxy-pyridin-4-yl)-3-[2'-(1H-tetrazol-5-yl)-biphenyl-4-ylmethyl)-3H-imidazo[4,5-b]pyridine]",change in vivo at 3 mg,[2],-29%
same,Binding Inhibition(%),[3],97.0%
"CCCCc1nc(Cl)c(CO)n1Cc1ccc(-c2ccccc2-c2nn[nH]n2)cc1 [Losartan(Dup 753), Losartan, reference compound]",Maximum blood pressure lowering effect in a dog,[1]; 3 mg/kg,13
same,Maximum blood pressure lowering effect in a dog,[1]; 10 mg/kg,23
same,Blood pressure variation with time,"[1]; dogs, 0.5 hr",-11.0%
same,Blood pressure variation with time,"[1]; dogs, 1 hr",-12.3%
same,Blood pressure variation with time,"[1]; dogs, 2 hr",-12.8%
same,Blood pressure variation with time,"[1]; dogs, 4 hr",-9.9%
same,Blood pressure variation with time,"[1]; dogs, 6 hr",-10.1%
same,Blood pressure variation with time,"[1]; dogs, 8 hr",-8.2%
same,maximum blood pressure lowering effect lasted up to (after the administration),"[1]; dogs, as shown in Table 3",up to 2 hours
same,change in vivo at 3 mg,[2],-30%
same,Binding Inhibition(%),[3],48.0%
same,blood pressure lowering effect,[4]; 3 mg/kg,30%
same,blood pressure lowering effect,[4]; 10 mg/kg,46%
